Test results from PMC12599236, “Itaconate utilisation by the human pathogen Pseudomonas aeruginosa requires uptake via the IctPQM TRAP transporter” (Biochemical Journal, 2025).

Tests used:
Assay type in all cases: binding
[1] = molecular target: T1, IctP (PA0884) (Pseudomonas aeruginosa, UniProt Q9I561); assay: intrinsic tryptophan fluorescence titration
T1 construct: SBP domain (pa0884), recombinant from E. coli

[2] = molecular target: T1, IctP (PA0884); assay: crystal structure ([…] Å); intrinsic tryptophan fluorescence titration; nanoDSF (~[…] °C shift)
[3] = molecular target: T1, IctP (PA0884); assay: as above; remark: listed apart in the source

T1 sequence (Q9I561 entry or part of it): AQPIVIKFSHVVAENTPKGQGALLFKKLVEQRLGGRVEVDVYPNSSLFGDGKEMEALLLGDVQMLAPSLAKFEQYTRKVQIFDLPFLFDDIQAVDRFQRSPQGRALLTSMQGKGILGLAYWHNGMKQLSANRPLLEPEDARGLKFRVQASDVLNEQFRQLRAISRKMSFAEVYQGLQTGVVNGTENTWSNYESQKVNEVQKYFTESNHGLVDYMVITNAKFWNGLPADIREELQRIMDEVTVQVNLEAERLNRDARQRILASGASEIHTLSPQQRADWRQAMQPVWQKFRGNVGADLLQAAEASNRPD

O=C(O)C[C@H](O)C(=O)O [L-malate]
Kd [1]: 16.2 µM

C=C(CC(=O)O)C(=O)O [itaconate, 2-methylenesuccinate]
Kd [2]: 180 µM

O=C(O)CCC(=O)O [succinate]
Kd [3]: 32.6 µM
